The NIST ThermoML archive (doi:10.1016/j.fluid.2018.07.032)
Numbers after ± are expanded uncertainties.

Details: 1825 kPa, Liquid, Pendant drop shape

CCCCCCCCCCCC [dodecane] + O
interfacial tension (383 K): 40 ± 0.2 mN/m | interfacial tension (403 K): 36.5 ± 0.2 mN/m | interfacial tension (423 K): 32.9 ± 0.2 mN/m | interfacial tension (443 K): 28.5 ± 0.2 mN/m

Cc1ccccc1 [toluene] + O
interfacial tension (383 K): 28.6 ± 0.1 mN/m | interfacial tension (403 K): 26.4 ± 0.1 mN/m | interfacial tension (423 K): 23.8 ± 0.2 mN/m | interfacial tension (443 K): 20.2 ± 0.2 mN/m
